Results taken from publication PMC9170106, “Pre-clinical evaluation of LASSBio-1491: From in vitro pharmacokinetic study to in vivo leishmanicidal activity” (PLoS ONE, 2022).
Where “and” joins values, the source holds several entries; their conditions need not be identical. Identical values can stand only once.

What was measured:
Microsomal metabolism [1] = assay type: in vitro ADME; settings: rat liver microsomes
Procedure: The study of the microsomal metabolism of the compounds was evaluated by placing 1 mg/ml rat liver microsome in a microcentrifuge tube, in the presence of a NADPH generator system (1 mM NADP^+, 1.5 mM MgCl2, 3.5 mM glucose-6-phosphate and 0.5 U/mL glucose-6-phosphate dehydrogenase) and phosphate buffer pH 7.4 in sufficient quantity for 250 μL. After 15 minutes of pre-incubation at 37°C in a water bath, the enzymatic reactions were started by adding 2 μL of a stock solution 1 mM from one of the prototypes (500 μL 20% DMSO 80% CH3CN), so that a final concentration of 5 μM was reached (0.2% DMSO, 0.8% acetonitrile).
Then, the samples were again incubated at 37°C under agitation for predetermined and fixed periods (0, 15, 30, 45 and 60 minutes). At the end of the incubation period 500 μL of cold methanol and 500 μL of cold acetonitrile containing 5 μM of methyl 1,1’biphenyl-4-carboxylate 5 μM (internal standard) were added to the wells to stop the reaction and the samples were homogenized and kept in an ice bath to accelerate protein precipitation. The mixture was centrifuged at 24500 x g for 15 minutes at 4°C (Universal centrifuge 320R Hettich®). Finally, the supernatant (1 mL) was filtrated and placed in vials to be analyzed by HPLC-PDA, Shimadzu—LC20AD, Kromasil C-18 column (4.6 mm x 250 mm, 5 μm), SPD M20A diode array detector, flow 1 mL/min, mobile phase acetonitrile: water 1:1 (v/v) for LASSBio-1491 and acetonitrile: water 60:40 (v/v) for LASSBio-1736, 20 minutes at 254 nm wavelength. Then, the microsomal half-life and clearance were calculated.

[2] = Aqueous solubility by UV spectroscopy; assay type: physicochemical; settings: phosphate buffer solution, buffer solution pH 7.4, 37 °C
Procedure: The solubility assay was carried out by correlating the concentration with the absorbance obtained by ultraviolet. First, a stock solution of the compound was prepared by dissolving 1 mg in 20 mL of methanol, and then the wavelength of greatest absorption of each compound was obtained by scanning between wavelengths from 200 nm to 500 nm. From the stock solution, six dilutions were prepared (dilution factor: 2.5), and the absorbance reading was performed in quartz cuvettes (10 mm optical path) in the UV-VIS spectrophotometer (Femto 800XI) at the previously determined wavelength. With the values obtained, a calibration curve with linear regression was made, in which the linearity of the analytical method is observed, with values of correlation coefficient (p > 0.95).
The compound was dissolved in a phosphate buffer solution (pH 7.4), prepared according to the Brazilian Pharmacopoeia (Vol.1) to obtain a supersaturated solution. The supersaturated aqueous solution was kept under stirring for 4 hours at 37°C and then the sample was filtered on a 0.45 μm filter to carry out the reading at the corresponding wavelength of the compound. The solubility was then determined through the equation of the straight line obtained by the linear regression of the calibration curve of each compound [19].

Microsomal metabolism [3] = assay type: in vitro ADME; settings: rat liver microsomes, without NADPH regenerating system
PAMPA-BBB permeability = experiment: PAMPA-BBB permeability
From the text: (§1) The parallel artificial membrane permeability assay uses 96-well plate in a “sandwich” type system, where one plate overlaps the other (PAMPA). […] The lipid mixture that impregnates the PVDF filter has a different constitution for the permeability tests for the blood-brain barrier (Brain lipid from pig extract in dodecane) and gastro-intestinal tract (L-α soy phosphatidylcholine in dodecane). In the PAMPA BBB and TGI assays, the optical density values obtained in the reading at each selected wavelength, for each of the compounds were analyzed in comparison with the values of several controls. In the case of the BBB, these values were used to elaborate an equation and determine the permeability coefficient (Pe), using a previously elaborated spreadsheet, and, for the TGI, these values were used to determine the absorbed fraction (Fa%), both using the Excel® program.

[4] = design: method as in PMID 35497630, PMID 29160126; settings: cited from earlier work
PAMPA-GIT permeability = settings: PAMPA-GIT conditions
From the text: as §1

Plasma stability = assay type: in vitro ADME, rat
Procedure: For analysis of plasma stability, the LASSBio-1491 in a final concentration of 5 μM from stock solution of 1 mM, was added in 50 μL of rat plasma solution diluted in 250 μL with PBS (pH 7.4) and was placed in a shaker at 37 °C under vigorous stirring for 0, 30, 60, 120 and 240 minutes. After each reaction time, 500 μL of cold methanol and 500 μL of cold acetonitrile containing 5 uM of methyl 1,1’biphenyl-4-carboxylate 5 μM (internal standard) were added to the wells to stop the reaction. The solution was mixed and centrifuged at 24500 x g for 15 min (Universal centrifuge 320R Hettich®). The supernatant (1 mL) was filtrated and placed in vials to be analyzed by HPLC-PDA, Shimadzu—LC20AD, Kromasil C-18 column (4.6 mm x 250 mm, 5 μm), SPD M20A diode array detector, flow 1 mL/min, mobile phase acetonitrile: water 1:1 (v/v) for LASSBio-1491 and acetonitrile: water 60:40 (v/v) for LASSBio-1736, for 20 minutes at 254 nm wavelength.

[5] = design: method as in PMID 35497630; settings: cited from earlier work

Q: For `O=C(N/N=C/c1ccc(C(F)(F)F)cc1)NNC(=O)c1ccc(Cl)cc1Cl` [LASSBio-1736], which half-life at 5 μM (Microsomal metabolism [1]; pH 7.4, with co-factor) is on record?
A: 3.5 h

Q: And the microsomal CLint at 5 μM (Microsomal metabolism [1]; pH 7.4, with co-factor, Volume x (0,693/t1/2))?
A: 0.825 µL/min/mg

Q: What about the “Metabolism rate with co-factor” value (Microsomal metabolism [1]; with NADPH regenerating system) of the same molecule?
A: 18.33%

Q: What about the “Elimination rate constant (k)” value (Microsomal metabolism [1]; with co-factor) of the same molecule?
A: 0.0033

Q: What about the Clapp (Microsomal metabolism [1]; with co-factor, scaled to liver and rat weight) of the same molecule?
A: 0.128 mL/min/kg

Q: What about the solubility at 4 h [2] of the same molecule?
A: 0.26 µM and 0.109 µg/mL

Q: And the “Metabolism rate non co-factor” value (Microsomal metabolism [3])?
A: 5.81%

Q: And the Papp (PAMPA-BBB permeability; PAMPA)?
A: 10.6 ×10⁻⁶ cm/s

Q: What about the Classification (PAMPA-BBB permeability; PAMPA-BBB) of the same molecule?
A: CNS+

Q: What about the “stability in rat plasma” value [4] of the same molecule?
A: great stability in rat plasma

Q: And the “solubility in the PAMPA-GIT experimental set” value (PAMPA-GIT permeability)?
A: insoluble

Q: And the “Elimination rate constant (k)” value (Plasma stability; rat plasma)?
A: 0.0004

Q: What about the t1/2 (Plasma stability; rat plasma) of the same molecule?
A: 28.9 h

Q: And the Metabolism rate (Plasma stability; rat plasma, 5 μM, 37 °C, up to 240 min)?
A: 7.30%

Q: And the half-life at 5 μM (Plasma stability; rat, rat plasma diluted with PBS, pH 7.4, rat plasma)?
A: 19.2 h

Q: What about the recovery at 5 μM (Plasma stability; rat, rat plasma diluted with PBS, pH 7.4, read-out: Recovery rate) of the same molecule?
A: 59.9%

Q: And the “signals of hepatic or renal toxicity” value [5]?
A: no preliminary signals of hepatic or renal toxicity
